Like-named read-outs stand apart in the source and are kept apart here.
Molecular target: T1, HIV protease (Human immunodeficiency virus type 1 group M subtype B, UniProt P04585)
T1 construct: A third viral enzyme known as protease then cleaves the polyproteins
Assay: Enzymatic Assay for Determining the Inhibition Constant (Ki) of Synthetic Compounds Targeting the HIV Protease (fluorometric FRET assay)
Assay type: biochemical
In short: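 Ki obtained via the Henderson equation from enzyme velocities with and without compound, accounting for substrate concentration and Km. Activity followed by FRET fluorescence from cleavage of a substrate flanked by EDANS donor and DABCYL acceptor.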

[1] = Table 1, compounds of formula I, read-out: Ki (anti-protease activity)

Compound	Ki [nM]	other results
Cc1ccc(S(=O)(=O)N(CC(C)C)[C@H](CO)CCCCNC(=O)[C@H](Cc2cccnc2)NC(=O)OC(C)(C)C)cc1 [Example 135, (2S,2′S) 2-N-Isobutyl-2-N-(4-methylbenzenesulfonyl)-6-N-(N′α-tert-butoxycarbonyl-S-3-pyridylalanyl)-2,6-diaminohexanol]	144	
CC(C)CN(CC(=O)NCCCC[C@@H](CO)N(CC(C)C)S(=O)(=O)c1ccc(N)cc1)c1ccccc1 [Example 181, (2S) 2-N-(4-Aminobenzenesulfonyl)-2-N-isobutyl-6-N-(N′α-isobutyl-N′α-phenylglycyl)-2,6-diaminohexanol]		Ki [1]: 16 nM
Cc1ccc(S(=O)(=O)N[C@@H](Cc2ccccc2)C(=O)NCCCC[C@@H](CO)N(CC(C)C)S(=O)(=O)c2ccc(C)cc2)cc1 [Example 96, (2S,2′S) 2-N-Isobutyl-2-N-(4-methylbenzenesulfonyl)-6-N-[N′α-(4-methylbenzenesulfonyl)-S-phenylalanyl]-2,6-diaminohexanol]	16	
Cc1ccc(S(=O)(=O)N[C@@H](CC(N)=O)C(=O)NCCCC[C@@H](C(=O)O)N(CC(C)C)S(=O)(=O)c2ccc(N)cc2)cc1 [Example 47, Nα-(4-Aminobenzenesulfonyl)-Nα-isobutyl-Nε-[N′α-(4-methylbenzenesulfonyl)-L-asparagyl]-L-lysine]	54	
CC(C)CN([C@@H](CCCCNC(=O)[C@H](Cc1ccccc1)NS(=O)(=O)c1ccccc1)C(=O)O)S(=O)(=O)c1ccc(N)cc1 [Example 44, Nα-(4-Aminobenzenesulfonyl)-Nα-isobutyl-Nε-(N′α-benzenesulfonyl-L-phenylalanyl)-L-lysine]	3.6	
Cc1ccc(S(=O)(=O)N(CC(C)C)[C@H](CO)CCCCNC(=O)[C@H](Cc2c[nH]c3ccccc23)NS(=O)(=O)c2ccccc2)cc1 [Example 128, (2S,2′S) 2-N-Isobutyl-2-N-(4-methylbenzenesuilfonyl)-6-N-(N′α-benzenesulfonyi-S-tryptophanyl)-2,6-diaminohexanol]		Ki [1]: 0.95 nM
COC(=O)[C@H](CCCCNC(=O)[C@H](Cc1ccccc1)NS(=O)(=O)c1ccc(C)cc1)N(CC(C)C)S(=O)(=O)c1ccc(C)cc1 [Example 68, Nα-Isobutyl-Nα-(4-methylbenzenesulfonyl)-Nε-[N′α-(4-methylbenzenesulfonyl)-L-phenylalanyl]-L-lysine Methyl Ester]	> 300	
Cc1ccc(S(=O)(=O)N(CC(C)C)[C@@H](CCCCNC(=O)[C@@H](N)Cc2ccccc2)C(=O)O)cc1 [Example 79, Nα-Isobutyl-Nα-(4-methylbenzenesulfonyl)-Nε-(L-phenylalanyl)-L-lysine]	1.5	
Cc1ccc(S(=O)(=O)N(CC(C)C)[C@@H](CCCCNC(=O)CNc2ccccn2)C(=O)O)cc1 [Example 108, Nα-Isobutyl-Nα-(4-methylbenzenesulfonyl)-Nε-[N′α-(2-pyridyl)glycyl]-L-lysine]		Ki [1]: > 300 nM
Cc1ccc(S(=O)(=O)N(CC(C)C)[C@H](CO)CCCCNC(=O)[C@H](Cc2ccccn2)NC(=O)OC(C)(C)C)cc1 [Example 134, (2S,2′S) 2-N-Isobutyl-2-N-(4-methylbenzenesulfonyl)-6-N-(N′α-tert-butoxycarbonyl-S-2-pyridylalanyl)-2,6-diaminohexanol]	30	
Cc1ccc(S(=O)(=O)N(CC(C)C)[C@@H](CCCCNC(=O)[C@H](CC(N)=O)NC(=O)C(C)(C)C)C(=O)O)cc1 [Example 62, Nα-Isobutyl-Nα-(4-methylbenzenesulfonyl)-Nε-(N′α-pivaloyl-L-asparagyl)-L-lysine]	212	
Cc1ccc(S(=O)(=O)N[C@@H](Cc2ccc([N+](=O)[O-])cc2)C(=O)NCCCC[C@@H](C(=O)O)N(CC(C)C)S(=O)(=O)c2ccc(C)cc2)cc1 [Example 26, Nα-Isobutyl-Nα-(4-methylbenzenesulfonyl)-Nε-[N′α-(4-methylbenzenesulfonyl)-L-4-nitrophenylalanyl]-L-lysine]		Ki (Anti-protease activity of Ne-amino acid substituted L-lysine derivatives and analogs of formula I, read-out: Ki): 2.6 nM

— patent US6610689B2, “HIV protease inhibitors based on amino acid derivatives” (priority 2001, dated 2003)
